*1 amine or outer side, *2 acyl side, *3 side chain or, on linkers, in order; H or OH if unused. Where a SMILES comes first, the peptide text is derived from it. [ ]: non-standard residue; d: D form. Trp(βS-Me,4-F) = C[C@@H](c1c[nH]c2cccc(F)c12)[C@H](N)C(=O)O; Bip(4'-COOH) = N[C@@H](Cc1ccc(-c2ccc(C(=O)O)cc2)cc1)C(=O)O; X2 = O=C(O)c1ccc(-c2ccc(C[C@H](N[*:1])C(=O)[*:2])cn2)cc1; X1 = CC(=O)N1CCN(c2ccc(C[C@H](N[*:1])C(=O)[*:2])cn2)CC1; 1Nal(3S-Me) = C[C@@H](c1cccc2ccccc12)[C@H](N)C(=O)O; X12 = CC(=O)NCCOc1ccc(C[C@H](N[*:1])C(=O)[*:2])cn1; Phe(4-COOH) = N[C@@H](Cc1ccc(C(=O)O)cc1)C(=O)O; h3Pal(5-CN) = N#Cc1cncc(CC[C@H](N)C(=O)O)c1; Pro(4R-NH2) = N[C@H]1CN[C@H](C(=O)O)C1; hTyr = N[C@@H](CCc1ccc(O)cc1)C(=O)O; 4Pal = N[C@@H](Cc1ccncc1)C(=O)O; dDab = NCC[C@@H](N)C(=O)O; dNMeA = CN[C@H](C)C(=O)O; Dap = NC[C@H](N)C(=O)O
Target: T1, Recombinant human IL-1β (Homo sapiens, UniProt P01584)
T1 construct: purchased BioLegend 579404
Assay: IL-6 assay in MRC5 cells: inhibition of IL-1β induced IL-6 secretion (AlphaLISA)
Type: cell-based
Conditions: inhibition of IL-1β induced IL-6 secretion in MRC5 cells; IL-1β pre-incubated 1 hour with compound; read-out: MRC5 IC50
Protocol: Procedure for IL-6 Assay in MRC5 Cells
The inhibition of IL-1β induced IL-6 secretion was evaluated in MRC5 cells. Recombinant human IL-1β (BioLegend 579404) at 2×EC80 concentration was prepared in seeding medium, EMEM (ATCC 30-2003) with 0.025% BSA (Sigma A9576), 1× penicillin/streptomycin (Gibco 15070-063), 1×NEAA (Gibco 11140-050), 1× GlutaMax (Gibco 35050-061), and 1× sodium pyruvate (Gibco 11360-070). 20 μL of IL-1β was added to a 384-well collagen-coated plate (Corning 354664) and pre-incubated at ambient temperature for 1 hour with 200 nL of compound dispensed using an ECHO 555 liquid handler. Human lung fibroblast MRC5 cells (ATCC CCL-171) were added at a density of 3000 cells/20 μL per well. The cells were prepared by passaging three times in growth medium, EMEM (ATCC 30-2003) with 10% fetal bovine serum (Gibco 16140-071), 1× penicillin/streptomycin (Gibco 15070-063), 1×NEAA (Gibco 11140-050), 1× GlutaMax (Gibco 35050-061), and 1× sodium pyruvate (Gibco 11360-070) in collagen-coated T175 flasks (Greiner 661950) and harvested in seeding medium after 5 minutes of 0.25% trypsin-EDTA (Gibco 25200-056) digestion. The 384-well collagen-coated plate, containing a final volume of 40 μL, was incubated at 37° C., 5% CO2 overnight. 5 μL of the conditioned medium was transferred to a 384-well AlphaLISA plate (PerkinElmer 6005350) for detection of IL-6 using the human AlphaLISA IL-6 kit (PerkinElmer AL223F) as per the manufacturer's protocol. 20 μL of the acceptor bead/biotinylated antibody mix was added to the 384-well AlphaLISA plate and incubated for 1 hour at ambient temperature. The donor bead mix was protected from light and 25 μL was added to the plate and incubated for 30 minutes at ambient temperature. The AlphaLISA plate was read on an EnVision multimode plate reader (Perkin Elmer model 2104) using the AlphaScreen setting (laser exc at 680 nm and emis at 570 nm). Dose response curves and IC50 values were analyzed using a 4-parameter logistic equation in Spotfire software (Tibco, Palo Alto, CA).

T1 sequence (P01584 117-269): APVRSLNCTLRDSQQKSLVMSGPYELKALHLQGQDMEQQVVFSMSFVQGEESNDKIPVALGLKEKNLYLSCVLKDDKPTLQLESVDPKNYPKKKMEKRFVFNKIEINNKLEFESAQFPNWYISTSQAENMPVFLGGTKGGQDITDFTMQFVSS

For `CC(=O)N1CCN(c2ccc(C[C@@H]3NC(=O)[C@H](CCc4cncc(C#N)c4)NC(=O)[C@@H](C)NC(=O)[C@H](CN)NC(=O)[C@H](Cc4ccncc4)NC(=O)[C@H](Cc4ccc(-c5ccc(C(=O)O)cc5)cc4)NC(=O)CNC(=O)[C@@H](C)N(C)C(=O)[C@H](CC(=O)O)NC(=O)[C@H]([C@@H](C)c4cccc5ccccc45)NC(=O)[C@@H]4C[C@@H](N)CN4C(=O)CNC(=O)[C@H](Cc4ccc(C(=O)O)cc4)NC(=O)[C@H](Cc4c[nH]c5ccccc45)NC3=O)cn2)CC1` [Example 1] (cyclo([X1]W[Phe(4-COOH)]G[Pro(4R-NH2)][1Nal(3S-Me)]D[dNMeA]G[Bip(4'-COOH)][4Pal][Dap][dA][h3Pal(5-CN)])), which IC50 is on record?
Its IC50 is 0.0365 nM.

With `CC(=O)N1CCN(c2ccc(C[C@@H]3NC(=O)[C@H](CCc4cncc(C#N)c4)NC(=O)[C@@H](C)NC(=O)[C@H](CC(C)C)NC(=O)[C@H](CCCCN)NC(=O)[C@H](Cc4ccc(-c5ccc(C(=O)O)cc5)cc4)NC(=O)CNC(=O)[C@@H](C)N(C)C(=O)[C@H](CC(=O)O)NC(=O)[C@H]([C@@H](C)c4cccc5ccccc45)NC(=O)[C@@H]4C[C@@H](N)CN4C(=O)CNC(=O)[C@H](Cc4ccc(C(=O)O)cc4)NC(=O)[C@H](Cc4c[nH]c5ccccc45)NC3=O)cn2)CC1` [Example 2] (cyclo([X1]W[Phe(4-COOH)]G[Pro(4R-NH2)][1Nal(3S-Me)]D[dNMeA]G[Bip(4'-COOH)]KL[dA][h3Pal(5-CN)])) as the compound, how does the IC50 read?
The IC50 was 0.0217 nM.

With `CC(=O)N1CCN(c2ccc(C[C@@H]3NC(=O)[C@H](CCc4ccc(O)cc4)NC(=O)[C@@H](C)NC(=O)[C@H](CC(C)C)NC(=O)[C@H](CCCCN)NC(=O)[C@H](Cc4ccc(-c5ccc(C(=O)O)cc5)cc4)NC(=O)CNC(=O)[C@@H](C)N(C)C(=O)[C@H](CC(=O)O)NC(=O)[C@H]([C@@H](C)c4cccc5ccccc45)NC(=O)[C@@H]4C[C@@H](N)CN4C(=O)CNC(=O)[C@H](Cc4ccc(C(=O)O)cc4)NC(=O)[C@H](Cc4c[nH]c5ccccc45)NC3=O)cn2)CC1` [Example 3] (cyclo([X1]W[Phe(4-COOH)]G[Pro(4R-NH2)][1Nal(3S-Me)]D[dNMeA]G[Bip(4'-COOH)]KL[dA][hTyr])) as the compound, how does the IC50 read?
The IC50 was 0.0599 nM.

How did the IC50 turn out when `CC(=O)N1CCN(c2ccc(C[C@@H]3NC(=O)[C@H](CCc4cncc(C#N)c4)NC(=O)[C@@H](C)NC(=O)[C@H](CN)NC(=O)[C@H](Cc4c[nH]c5ccccc45)NC(=O)[C@H](Cc4ccc(-c5ccc(C(=O)O)cc5)cc4)NC(=O)CNC(=O)[C@@H](C)N(C)C(=O)[C@H](CC(=O)O)NC(=O)[C@H]([C@@H](C)c4cccc5ccccc45)NC(=O)[C@@H]4C[C@@H](N)CN4C(=O)CNC(=O)[C@H](Cc4ccc(C(=O)O)cc4)NC(=O)[C@H](Cc4c[nH]c5ccccc45)NC3=O)cn2)CC1` [Example 4] (cyclo([X1]W[Phe(4-COOH)]G[Pro(4R-NH2)][1Nal(3S-Me)]D[dNMeA]G[Bip(4'-COOH)]W[Dap][dA][h3Pal(5-CN)])) was run?
Its IC50 is 0.0438 nM.

For `CC(=O)N1CCN(c2ccc(C[C@@H]3NC(=O)[C@H](CCc4ccc(O)cc4)NC(=O)[C@@H](C)NC(=O)[C@H](CN)NC(=O)[C@H](Cc4c[nH]c5ccccc45)NC(=O)[C@H](Cc4ccc(-c5ccc(C(=O)O)cc5)cc4)NC(=O)CNC(=O)[C@@H](C)N(C)C(=O)[C@H](CC(=O)O)NC(=O)[C@H]([C@@H](C)c4cccc5ccccc45)NC(=O)[C@@H]4C[C@@H](N)CN4C(=O)CNC(=O)[C@H](Cc4ccc(C(=O)O)cc4)NC(=O)[C@H](Cc4c[nH]c5ccccc45)NC3=O)cn2)CC1` [Example 5] (cyclo([X1]W[Phe(4-COOH)]G[Pro(4R-NH2)][1Nal(3S-Me)]D[dNMeA]G[Bip(4'-COOH)]W[Dap][dA][hTyr])), which IC50 is on record?
Its IC50 is 0.674 nM.

Which IC50 does the source give for `CC(=O)N1CCN(c2ccc(C[C@@H]3NC(=O)[C@H](CCc4ccc(O)cc4)NC(=O)[C@@H](C)NC(=O)[C@H](CC(C)C)NC(=O)[C@H](CCCCN)NC(=O)[C@H](Cc4ccc(-c5ccc(C(=O)O)cc5)cc4)NC(=O)CNC(=O)[C@@H](C)N(C)C(=O)[C@H](CC(=O)O)NC(=O)[C@H]([C@@H](C)c4c[nH]c5cccc(F)c45)NC(=O)[C@@H]4C[C@@H](N)CN4C(=O)CNC(=O)[C@H](Cc4ccc(C(=O)O)cc4)NC(=O)[C@H](Cc4c[nH]c5ccccc45)NC3=O)cn2)CC1` [Example 6] (cyclo([X1]W[Phe(4-COOH)]G[Pro(4R-NH2)][Trp(βS-Me,4-F)]D[dNMeA]G[Bip(4'-COOH)]KL[dA][hTyr])) here?
Its IC50 is 0.0666 nM.

`CC(=O)N1CCN(c2ccc(C[C@@H]3NC(=O)[C@H](CCc4ccc(O)cc4)NC(=O)[C@@H](CCN)NC(=O)[C@H](CC(C)C)NC(=O)[C@H](CCCCN)NC(=O)[C@H](Cc4ccc(-c5ccc(C(=O)O)cc5)cc4)NC(=O)CNC(=O)[C@@H](C)N(C)C(=O)[C@H](CC(=O)O)NC(=O)[C@H]([C@@H](C)c4c[nH]c5cccc(F)c45)NC(=O)[C@@H]4C[C@@H](N)CN4C(=O)CNC(=O)[C@H](Cc4ccc(C(=O)O)cc4)NC(=O)[C@H](Cc4c[nH]c5ccccc45)NC3=O)cn2)CC1` [Example 7] (cyclo([X1]W[Phe(4-COOH)]G[Pro(4R-NH2)][Trp(βS-Me,4-F)]D[dNMeA]G[Bip(4'-COOH)]KL[dDab][hTyr])) was tested. Which IC50 did it give?
The IC50 was 0.135 nM.

For `CC(=O)N1CCN(c2ccc(C[C@@H]3NC(=O)[C@H](CCc4ccc(O)cc4)NC(=O)[C@@H](CCN)NC(=O)CNC(=O)[C@H](Cc4c[nH]c5ccccc45)NC(=O)[C@H](Cc4ccc(-c5ccc(C(=O)O)cc5)cc4)NC(=O)CNC(=O)[C@@H](C)N(C)C(=O)[C@H](CC(=O)O)NC(=O)[C@H]([C@@H](C)c4c[nH]c5cccc(F)c45)NC(=O)[C@@H]4C[C@@H](N)CN4C(=O)CNC(=O)[C@H](Cc4ccc(C(=O)O)cc4)NC(=O)[C@H](Cc4c[nH]c5ccccc45)NC3=O)cn2)CC1` [Example 8] (cyclo([X1]W[Phe(4-COOH)]G[Pro(4R-NH2)][Trp(βS-Me,4-F)]D[dNMeA]G[Bip(4'-COOH)]WG[dDab][hTyr])), which IC50 is on record?
The IC50 was 0.14 nM.

For `CC(=O)NCCOc1ccc(C[C@@H]2NC(=O)[C@H](CCc3ccc(O)cc3)NC(=O)[C@@H](C)NC(=O)[C@H](CC(C)C)NC(=O)[C@H](CCCCN)NC(=O)[C@H](Cc3ccc(-c4ccc(C(=O)O)cc4)cc3)NC(=O)CNC(=O)[C@@H](C)N(C)C(=O)[C@H](CC(=O)O)NC(=O)[C@H]([C@@H](C)c3c[nH]c4cccc(F)c34)NC(=O)[C@@H]3C[C@@H](N)CN3C(=O)CNC(=O)[C@H](Cc3ccc(C(=O)O)cc3)NC(=O)[C@H](Cc3c[nH]c4ccccc34)NC2=O)cn1` [Example 9] (cyclo([X12]W[Phe(4-COOH)]G[Pro(4R-NH2)][Trp(βS-Me,4-F)]D[dNMeA]G[Bip(4'-COOH)]KL[dA][hTyr])), which IC50 is on record?
The IC50 was 0.118 nM.

With `C[C@@H]1C(=O)NCC(=O)N[C@@H](Cc2ccc(-c3ccc(C(=O)O)cc3)nc2)C(=O)N[C@@H](Cc2c[nH]c3ccccc23)C(=O)N[C@@H](CN)C(=O)N[C@H](C)C(=O)N[C@@H](CCc2ccc(O)cc2)C(=O)N[C@@H](Cc2ccc(-c3ccc(C(=O)O)cc3)nc2)C(=O)N[C@@H](Cc2c[nH]c3ccccc23)C(=O)N[C@@H](Cc2ccc(C(=O)O)cc2)C(=O)NCC(=O)N2C[C@H](N)C[C@H]2C(=O)N[C@@H]([C@@H](C)c2cccc3ccccc23)C(=O)N[C@@H](CC(=O)O)C(=O)N1C` [Example 10] (cyclo([X2]W[Phe(4-COOH)]G[Pro(4R-NH2)][1Nal(3S-Me)]D[dNMeA]G[X2]W[Dap][dA][hTyr])) as the compound, how does the IC50 read?
The IC50 was 0.256 nM.

With `C[C@@H]1C(=O)NCC(=O)N[C@@H](Cc2ccc(-c3ccc(C(=O)O)cc3)cc2)C(=O)N[C@@H](Cc2c[nH]c3ccccc23)C(=O)N[C@@H](CN)C(=O)N[C@H](C)C(=O)N[C@@H](CCc2ccc(O)cc2)C(=O)N[C@@H](Cc2ccc(-c3ccc(C(=O)O)cc3)nc2)C(=O)N[C@@H](Cc2c[nH]c3ccccc23)C(=O)N[C@@H](Cc2ccc(C(=O)O)cc2)C(=O)NCC(=O)N2C[C@H](N)C[C@H]2C(=O)N[C@@H]([C@@H](C)c2cccc3ccccc23)C(=O)N[C@@H](CC(=O)O)C(=O)N1C` [Example 11] (cyclo([X2]W[Phe(4-COOH)]G[Pro(4R-NH2)][1Nal(3S-Me)]D[dNMeA]G[Bip(4'-COOH)]W[Dap][dA][hTyr])) as the compound, how does the IC50 read?
Its IC50 is 0.0908 nM.

`C[C@@H]1C(=O)NCC(=O)N[C@@H](Cc2ccc(-c3ccc(C(=O)O)cc3)nc2)C(=O)N[C@@H](Cc2c[nH]c3ccccc23)C(=O)N[C@@H](CN)C(=O)N[C@H](C)C(=O)N[C@@H](CCc2ccc(O)cc2)C(=O)N[C@@H](Cc2ccc(-c3ccc(C(=O)O)cc3)cc2)C(=O)N[C@@H](Cc2c[nH]c3ccccc23)C(=O)N[C@@H](Cc2ccc(C(=O)O)cc2)C(=O)NCC(=O)N2C[C@H](N)C[C@H]2C(=O)N[C@@H]([C@@H](C)c2cccc3ccccc23)C(=O)N[C@@H](CC(=O)O)C(=O)N1C` [Example 12] (cyclo([Bip(4'-COOH)]W[Phe(4-COOH)]G[Pro(4R-NH2)][1Nal(3S-Me)]D[dNMeA]G[X2]W[Dap][dA][hTyr])) was tested. Which IC50 did it give?
The IC50 was 0.0551 nM.

— patent US20230406885A1, “CYCLIC PEPTIDES FOR TRAPPING INTERLEUKIN-1 BETA” (MERCK SHARP & DOHME LLC, priority 2022, published 2023)
